Measurements published in ChEMBL document CHEMBL4765305, “Elephantopinolide A-P, germacrane-type sesquiterpene lactones from Elephantopus scaber induce apoptosis, autophagy and G2/M phase arrest in hepatocellular carcinoma cells” (Eur J Med Chem, 2020).

Assays:
HepG2 = assay: Anti-hepatoma activity against human HepG2 cells assessed as cell growth inhibition by MTT assay; assay type: functional, cell-based
Hep 3B2 = assay: Anti-hepatoma activity against human Hep3B cells assessed as cell growth inhibition by MTT assay; assay type: functional, cell-based

| SMILES | IC50 (HepG2) [µM] | IC50 (Hep 3B2) [µM] |
| --- | --- | --- |
| C/C=C(\C)C(=O)O[C@H]1CC2=C[C@@H](C/C(C)=C/[C@H]3OC(=O)C(CO)=C13)OC2=O | > 20 | > 20 |
| C=C1C(=O)O[C@@H]2/C=C(\C)C[C@H]3C=C(C[C@H](OC(=O)C(C)C)[C@@H]12)C(=O)O3 | 10.6 | 8.63 |
| C=C(C)C(=O)O[C@H]1CC2=C[C@@H](C[C@@](C)(O)/C=C/[C@@H]1C(=C)C(=O)OC)OC2=O | > 20 | > 20 |
| COC[C@@H]1C(=O)O[C@H]2[C@H]1[C@@H](O)CC1=C[C@H](C[C@@]3(C)O[C@@H]23)OC1=O | > 20 | > 20 |
